Measurements: patent US10632174B2, “B7-H1 fusion polypeptides for treating and preventing organ failure” (Fraunhofer-Gesellschaft zur Förderung der angewandten …, priority 2015, dated 2020)

Legend:
[1] = test system: B7-H1 surface expression in Hepa1-6 cells (Nox4 inhibition); assay: B7-H1 surface expression in Hepa1-6 cells by FACS; type: cell-based, murine; conditions: 10 μM, 24 h, no further treatment, FIG. 8A
Procedure: FIG. 8: Inhibition of Nox4 enhances B7-H1 expression. Hepa1-6 cells were treated with the Nox4-specific inhibitor GKT137831 [10 μM] for 24 h. Afterwards, cells were harvested and B7-H1 expression was determined by FACS analysis. A quantification of five independent experiments is provided in (A). In liver homogenates of global NOX4 knockout mice B7-H1 protein expression was examined by Western blotting (B). A representative blot is shown. A quantification of B7-H1 expression (WT vs. NOX4-KO; n=5/5; *p<0.5) is provided in (C). B7-H1 expression on hepatocytes following polymicrobial sepsis initiation by cecal ligation and puncture (CLP) was studied in liver single cell suspensions by FACS-analysis gating for CD45-, i.e. non-immune cells as described in Materials and Methods. A quantification is shown (D), (sham vs. CLP, WT sham is set as 1; n=5/5/5/5; *p<0.5). Liver damage in global NOX4 knockout mice following CLP operation is assessed by looking at ALT/AST release into the serum, which is determined with a Reflotron Plus […] analyzer (E) (NOX4-KO; sham vs. CLP; n=5/5, *p<0.5). […]
All antibodies and secondary reagents were titrated to optimal concentrations. […] Surface expression of B7-H1 and B7-DC on the surface of primary hepatocytes was determined by FACS analysis, using anti-B7-H-PE or anti-B7-DC-PE. […]

[2] = test system: B7-H1 expression in Hepa1-6 cells; assay: B7-H1 mRNA (qPCR) and protein (Western) expression in Hepa1-6 cells; type: cell-based, murine; conditions: 100 ng/ml LPS with 10 mM NAC, FIG. 7 vs FIG. 3B
Procedure: FIG. 3: B7-H1 expression in Hepa1-6 cells following LPS or LTA stimulation. Hepa1-6 cells were stimulated for the indicated times with 100 ng/ml LPS or 100 ng/ml LTA. Afterwards cells were harvested and mRNA was isolated or protein lysates were prepared as described in Materials and Methods. mRNA expression of B7-H1 (A) was analyzed by quantitative PCR. 18s rRNA was used as a house keeping gene. (B) B7-H1 protein expression following LPS stimulation was determined by Western analysis. All experiments were performed at least five times. Data represent the mean±SD (*p<0.5) or show a representative blot.
FIG. 7: B7-H1 expression was restored adding the GSH precursor N-acetyl-cysteine (NAC). Hepa1-6 cells were stimulated for the indicated times with 100 ng/ml LPS with 10 mM NAC. Afterwards cells were harvested and protein lysates were prepared as described in Materials and Methods. B7-H1 protein expression was determined by Western analysis. All experiments were performed at least five times. […]
LPS and LTA act via different Toll-like receptors (TLRs) on target cells i.e. TLR2 for LTA and TLR4 for LPS. […] To investigate whether a ROS-dependent mechanism was responsible for the reduction of B7-H1, ROS formation was determined in Hepa 1-6 cells treated with LPS alone or in combination with N-acetylcysteine (NAC). […]
B7-H1, B7-DC, PD-1, Fas and EGFP expression were analyzed by Western analysis. […]

SMILES | increase of B7-H1 surface expression [1] | B7-H1 protein expression [2]
CN(C)c1cccc(-c2c3c(=O)n(-c4ccccc4Cl)[nH]c3cc(=O)n2C)c1 [GKT137S31] | roughly 50% | –
CC(=O)N[C@@H](CS)C(=O)O [NAC, N-acetylcysteine] | – | restored expression of B7-H1
